Assays:
[1] = system: large crabgrass; assay: Test B pre-/postemergence herbicide test; type: in vivo, Digitaria sanguinalis
Outline: (§1)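 Formulation: non-phytotoxic solvent mix with surfactant. Timing: preemergence on seed and postemergence on 2–18 cm plants, applied concurrently. Readout after 13–15 d greenhouse: visual 0–100 control rating against controls.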

[2] = system: barnyardgrass; assay: Test B flooded paddy test; type: in vivo, Echinochloa crus-galli; settings: 1000 g ai/ha, scale 0 to 100 (0 no effect, 100 complete control)
Outline: (§2)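 Visual control ratings, 0–100 versus untreated controls, taken after 13 to 15 days in the greenhouse. Blackgrass received a postemergence spray at the 1- to 4-leaf stage (2–18 cm); ducksalad, umbrella sedge and barnyardgrass were flooded-paddy treated at 2 leaves.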

[3] = system: cocklebur; assay: Test B pre-/postemergence herbicide test; type: in vivo, Xanthium strumarium
Outline: (§3)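 Response was scored visually 13 to 15 days after treatment against untreated greenhouse controls, 0 meaning no effect and 100 complete control. Formulations (solvent mixture plus surfactant) went onto soil after planting, onto foliage of 1- to 4-leaf plants, and onto 2-leaf plants in a flooded paddy set including rice and barnyardgrass.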

[4] = system: Surinam grass; assay: Test B pre-/postemergence herbicide test; type: in vivo, Urochloa decumbens
Outline: as §1

[5] = system: giant foxtail; assay: Test B pre-/postemergence herbicide test; type: in vivo, Setaria faberi
Outline: as §1

[6] = system: barnyardgrass; assay: Test B pre-/postemergence herbicide test; type: in vivo, Echinochloa crus-galli
Outline: as §3

[7] = system: rice; assay: Test B flooded paddy test; type: in vivo, Oryza sativa; settings: 1000 g ai/ha, scale 0 to 100 (0 no effect, 100 complete control)
Outline: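 Scale 0–100: zero equals no visible effect, 100 complete control, judged by eye relative to controls. Timing: 13 to 15 days in greenhouse post-treatment. Growth stage at spraying: two leaves (paddy) or one to four leaves, 2–18 cm (postemergence).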

[8] = system: lambsquarters; assay: Test B pre-/postemergence herbicide test; type: in vivo, Chenopodium album
Outline: as §1

[9] = system: wild oat; assay: Test B postemergence herbicide test; type: in vivo, Avena fatua
Outline: (§4)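 After treating 2-leaf paddy plants or 2–18 cm postemergence plants (1 to 4 leaves) with formulated chemical, researchers kept them in a greenhouse for 13–15 days. Effects were judged visually versus controls: 0 indicates none, 100 total control.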

[10] = system: small flower umbrella sedge; assay: Test B flooded paddy test; type: in vivo, Cyperus difformis; settings: 1000 g ai/ha, scale 0 to 100 (0 no effect, 100 complete control)
Outline: as §2

[11] = system: morningglory; assay: Test B pre-/postemergence herbicide test; type: in vivo, Ipomoea coccinea
Outline: as §3

[12] = system: pigweed; assay: Test B pre-/postemergence herbicide test; type: in vivo, Amaranthus retroflexus
Outline: as §1

[13] = system: ducksalad; assay: Test B flooded paddy test; type: in vivo, Heteranthera limosa; settings: 1000 g ai/ha, scale 0 to 100 (0 no effect, 100 complete control)
Outline: as §2

[14] = system: corn; assay: Test B pre-/postemergence herbicide test; type: in vivo, Zea mays
Outline: as §1

[15] = system: blackgrass; assay: Test B postemergence herbicide test; type: in vivo, Alopecurus myosuroides
Outline: as §2

[16] = system: wheat; assay: Test B postemergence herbicide test; type: in vivo, Triticum aestivum; set-up: key to Wheat plant response rating: 0 = no effect, 100 = complete control
Outline: as §4

[17] = 125 g ai/ha, 0 = no effect, 100 = complete control, preemergence
[18] = 125 g ai/ha, visual rating, scale 0 (no effect) to 100 (complete control), postemergence
[19] = 500 g ai/ha, visual rating, 0 = no effect, 100 = complete control, preemergence
[20] = postemergence, 500 g ai/ha, scale 0 to 100, 0 is no effect, 100 is complete control
[21] = 125 g ai/ha; visual rating, scale 0 (no effect) to 100 (complete control); postemergence
[22] = postemergence, 500 g ai/ha; scale 0 to 100, 0 is no effect, 100 is complete control
[23] = Postemergence, 500 g ai/ha, visual rating after 13 to 15 days, scale 0 (no effect) to 100 (complete control)
[24] = Preemergence, 500 g ai/ha, scale 0 to 100
[25] = postemergence, 125 g ai/ha, visual rating, scale 0 (no effect) to 100 (complete control)
[26] = preemergence, 125 g ai/ha, 0 to 100 scale, 0 is no effect, 100 is complete control
[27] = Postemergence, 500 g ai/ha; visual rating after 13 to 15 days, scale 0 (no effect) to 100 (complete control)
[28] = postemergence, 125 g ai/ha; visual rating, scale 0 (no effect) to 100 (complete control)
[29] = 500 g ai/ha, visual rating 0-100, 0 no effect, 100 complete control, preemergence
[30] = postemergence, 500 g ai/ha, visual rating, scale 0 (no effect) to 100 (complete control)
[31] = postemergence, 500 g ai/ha; visual rating, scale 0 (no effect) to 100 (complete control)

CCN(C)C(=O)c1ccc(F)c(NC(=O)C2CC(C(C)(C)C)=NN2CC)c1 (racemic) [Compound 307]
Crabgrass, Large plant response rating (0 to 100 scale) [1, 17]: 90
Crabgrass, Large plant response rating [1, 18]: 10
Plant response rating, Crabgrass, Large [1, 19]: 100
Crabgrass, Large plant response rating [1, 20]: 30
Barnyardgrass plant response rating [2]: 90
Cocklebur plant response rating (0 to 100 scale) [3, 17]: 80
Cocklebur plant response rating [3, 18]: 20
Plant response rating, Cocklebur [3, 19]: 100
Cocklebur plant response rating [3, 20]: 30
Surinam Grass plant response rating (0 to 100 scale) [4, 17]: 70
Surinam Grass plant response rating [4, 18]: 10
Plant response rating, Surinam Grass [4, 19]: 90
Surinam Grass plant response rating [4, 20]: 30
Foxtail, Giant plant response rating (0 to 100 scale) [5, 17]: 90
Foxtail, Giant plant response rating [5, 18]: 20
Plant response rating, Foxtail, Giant [5, 19]: 90
Foxtail, Giant plant response rating [5, 20]: 30
Barnyardgrass plant response rating (0 to 100 scale) [6, 17]: 80
Barnyardgrass plant response rating [6, 18]: 0
Plant response rating, Barnyardgrass [6, 19]: 100
Barnyardgrass plant response rating [6, 20]: 10
Rice plant response rating [7]: 90
Lambsquarters plant response rating (0 to 100 scale) [8, 17]: 100
Lambsquarters plant response rating [8, 18]: 60
Plant response rating, Lambsquarters [8, 19]: 100
Lambsquarters plant response rating [8, 20]: 80
Oat, Wild plant response rating [9, 21]: 0
Oat, Wild plant response rating [9, 22]: 20
Sedge, Umbrella plant response rating [10]: 90
Morningglory plant response rating (0 to 100 scale) [11, 17]: 0
Morningglory plant response rating [11, 18]: 0
Plant response rating, Morningglory [11, 19]: 10
Morningglory plant response rating [11, 20]: 0
Pigweed plant response rating (0 to 100 scale) [12, 17]: 100
Pigweed plant response rating [12, 18]: 50
Plant response rating, Pigweed [12, 19]: 100
Pigweed plant response rating [12, 20]: 60
Ducksalad plant response rating [13]: 80
Corn plant response rating (0 to 100 scale) [14, 17]: 70
Plant response rating, Corn [14, 19]: 80
Corn plant response rating [14, 20]: 10
Blackgrass plant response rating [15, 21]: 10
Blackgrass plant response rating [15, 22]: 30
Wheat plant response rating [16, 21]: 0
Wheat plant response rating [16, 22]: 20

CCNC(=O)c1cc(NC(=O)c2cc(C(C)(C)C)nn2CC)ccc1F [Compound 58]
Plant response rating, Crabgrass, Large [1, 23]: 30
Crabgrass, Large plant response rating [1, 24]: 100
Crabgrass, Large plant response rating [1, 25]: 20
Plant response rating, Crabgrass, Large [1, 26]: 100
Barnyardgrass plant response rating ([2]; visual rating, 13 to 15 days): 80
Plant response rating, Cocklebur [3, 23]: 100
Cocklebur plant response rating [3, 24]: 100
Cocklebur plant response rating [3, 25]: 80
Plant response rating, Cocklebur [3, 26]: 0
Plant response rating, Surinam Grass [4, 23]: 30
Surinam Grass plant response rating [4, 24]: 60
Surinam Grass plant response rating [4, 25]: 10
Plant response rating, Surinam Grass [4, 26]: 30
Plant response rating, Foxtail, Giant [5, 23]: 20
Foxtail, Giant plant response rating [5, 24]: 100
Foxtail, Giant plant response rating [5, 25]: 20
Plant response rating, Foxtail, Giant [5, 26]: 100
Plant response rating, Barnyardgrass [6, 23]: 60
Barnyardgrass plant response rating [6, 24]: 100
Barnyardgrass plant response rating [6, 25]: 30
Plant response rating, Barnyardgrass [6, 26]: 90
Rice plant response rating ([7]; visual rating, 13 to 15 days): 60
Plant response rating, Lambsquarters [8, 23]: 90
Lambsquarters plant response rating [8, 24]: 100
Lambsquarters plant response rating [8, 25]: 90
Plant response rating, Lambsquarters [8, 26]: 100
Plant response rating, Oat, Wild [9, 27]: 30
Oat, Wild plant response rating [9, 28]: 20
Sedge, Umbrella plant response rating ([10]; visual rating, 13 to 15 days): 80
Plant response rating, Morningglory [11, 23]: 30
Morningglory plant response rating [11, 24]: 30
Morningglory plant response rating [11, 25]: 20
Plant response rating, Pigweed [12, 23]: 90
Pigweed plant response rating [12, 24]: 100
Pigweed plant response rating [12, 25]: 60
Plant response rating, Pigweed [12, 26]: 100
Ducksalad plant response rating ([13]; visual rating, 13 to 15 days): 80
Plant response rating, Corn [14, 23]: 20
Corn plant response rating [14, 24]: 30
Corn plant response rating [14, 25]: 10
Plant response rating, Corn [14, 26]: 20
Plant response rating, Blackgrass [15, 27]: 30
Blackgrass plant response rating [15, 28]: 10
Plant response rating, Wheat [16, 27]: 20
Wheat plant response rating [16, 28]: 0

CCNC(=O)c1cccc(NC(=O)c2sc(C(C)(C)C)nc2C)c1 [Compound 198]
Crabgrass, Large plant response rating (0 to 100 scale) [1, 17]: 80
Plant response rating, Crabgrass, Large [1, 29]: 100
Crabgrass, Large plant response rating [1, 25]: 10
Crabgrass, Large plant response rating [1, 30]: 20
Barnyardgrass plant response rating ([2]; visual rating, 13 to 15 days): 20
Cocklebur plant response rating (0 to 100 scale) [3, 17]: 0
Plant response rating, Cocklebur [3, 29]: 20
Cocklebur plant response rating [3, 25]: 60
Cocklebur plant response rating [3, 30]: 90
Surinam Grass plant response rating (0 to 100 scale) [4, 17]: 10
Plant response rating, Surinam Grass [4, 29]: 50
Surinam Grass plant response rating [4, 25]: 20
Surinam Grass plant response rating [4, 30]: 20
Foxtail, Giant plant response rating (0 to 100 scale) [5, 17]: 20
Plant response rating, Foxtail, Giant [5, 29]: 100
Foxtail, Giant plant response rating [5, 25]: 20
Foxtail, Giant plant response rating [5, 30]: 30
Barnyardgrass plant response rating (0 to 100 scale) [6, 17]: 40
Plant response rating, Barnyardgrass [6, 29]: 90
Barnyardgrass plant response rating [6, 25]: 0
Barnyardgrass plant response rating [6, 30]: 30
Rice plant response rating ([7]; visual rating, 13 to 15 days): 20
Lambsquarters plant response rating (0 to 100 scale) [8, 17]: 100
Plant response rating, Lambsquarters [8, 29]: 100
Lambsquarters plant response rating [8, 25]: 70
Lambsquarters plant response rating [8, 30]: 70
Oat, Wild plant response rating [9, 28]: 20
Oat, Wild plant response rating [9, 31]: 30
Sedge, Umbrella plant response rating ([10]; visual rating, 13 to 15 days): 70
Morningglory plant response rating (0 to 100 scale) [11, 17]: 10
Plant response rating, Morningglory [11, 29]: 80
Morningglory plant response rating [11, 25]: 60
Morningglory plant response rating [11, 30]: 80
Pigweed plant response rating (0 to 100 scale) [12, 17]: 90
Plant response rating, Pigweed [12, 29]: 100
Pigweed plant response rating [12, 25]: 50
Pigweed plant response rating [12, 30]: 50
Ducksalad plant response rating ([13]; visual rating, 13 to 15 days): 70
Corn plant response rating (0 to 100 scale) [14, 17]: 0
Plant response rating, Corn [14, 29]: 40
Corn plant response rating [14, 25]: 20
Corn plant response rating [14, 30]: 70
Blackgrass plant response rating [15, 28]: 0
Blackgrass plant response rating [15, 31]: 10
Wheat plant response rating [16, 28]: 0
Wheat plant response rating [16, 31]: 10
